Test [1] deals with FER (Homo sapiens, UniProt P16591). Kind of test: Kinase selectivity screen FER. The conditions noted are these: read-out: % inhibition of FER.
For test [2], the target named is YES1 (Homo sapiens, UniProt P07947). Kind of test: Kinase selectivity screen YES1. To be noted: read-out: % inhibition of YES1.
For test [3], the target named is MAP2K1 (Homo sapiens, UniProt Q02750). Description: Kinase selectivity screen MAP2K1. To be noted: read-out: % inhibition of MAP2K1.
The target of test [4] is PIP5K1A (Homo sapiens, UniProt Q99755). Kind of test: Kinase selectivity screen PIP5K1A. The conditions noted are these: read-out: % inhibition of PIP5K1A.
Test [5] concerns the target PTK2 (Homo sapiens, UniProt Q05397). Kind of test: Kinase selectivity screen PTK2. To be noted: read-out: % inhibition of PTK2.
The target in test [6] is PAK4 (Homo sapiens, UniProt O96013). Description: Kinase selectivity screen PAK4. The conditions noted are these: read-out: % inhibition of PAK4.
Test [7] deals with RET (Homo sapiens, UniProt P07949). Kind of test: Kinase selectivity screen RET. To be noted: read-out: % inhibition of RET.
For test [8], the target named is PAK7 (Homo sapiens, UniProt Q9P286). Description: Kinase selectivity screen PAK7. To be noted: read-out: % inhibition of PAK7.
For test [9], the target named is ROCK1 (Homo sapiens, UniProt Q13464). Kind of test: Kinase selectivity screen ROCK1. To be noted: read-out: % inhibition of ROCK1.
Test [10] concerns the target T1, EPHB4 (Homo sapiens, UniProt P54760).
T1 sequence (P54760 16-987): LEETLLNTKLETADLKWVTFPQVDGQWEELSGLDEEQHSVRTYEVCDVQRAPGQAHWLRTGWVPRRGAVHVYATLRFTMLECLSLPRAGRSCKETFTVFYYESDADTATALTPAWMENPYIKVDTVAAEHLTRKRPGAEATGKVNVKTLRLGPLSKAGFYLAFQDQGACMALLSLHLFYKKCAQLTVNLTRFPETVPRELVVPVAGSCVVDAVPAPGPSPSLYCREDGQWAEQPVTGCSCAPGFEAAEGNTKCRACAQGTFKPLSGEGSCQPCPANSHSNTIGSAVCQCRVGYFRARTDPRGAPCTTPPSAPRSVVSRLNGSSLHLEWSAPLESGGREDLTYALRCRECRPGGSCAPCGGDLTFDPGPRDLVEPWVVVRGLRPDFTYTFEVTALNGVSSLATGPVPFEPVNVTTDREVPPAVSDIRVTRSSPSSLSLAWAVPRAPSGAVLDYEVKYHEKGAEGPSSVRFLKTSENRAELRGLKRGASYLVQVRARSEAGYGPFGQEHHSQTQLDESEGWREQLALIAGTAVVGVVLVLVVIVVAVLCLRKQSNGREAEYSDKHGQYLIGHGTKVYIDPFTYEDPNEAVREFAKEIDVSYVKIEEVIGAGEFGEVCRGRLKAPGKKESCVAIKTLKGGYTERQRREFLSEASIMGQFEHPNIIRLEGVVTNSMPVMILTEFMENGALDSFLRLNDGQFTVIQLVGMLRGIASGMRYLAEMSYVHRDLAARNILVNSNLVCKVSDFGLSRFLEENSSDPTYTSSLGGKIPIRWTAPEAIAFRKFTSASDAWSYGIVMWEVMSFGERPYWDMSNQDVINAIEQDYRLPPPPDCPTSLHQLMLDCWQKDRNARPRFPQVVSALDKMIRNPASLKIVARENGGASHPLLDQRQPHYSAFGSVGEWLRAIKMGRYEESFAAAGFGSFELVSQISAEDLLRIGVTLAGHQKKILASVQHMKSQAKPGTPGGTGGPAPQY
Description: Kinase selectivity screen EPHB4. The conditions noted are these: read-out: % inhibition of EPHB4.

Test [11] addresses T2, Full-length human MNK1 (Homo sapiens, UniProt Q9BUB5, T385D).
T2 construct: GST (N); purchased Carna Biosciences 02-145; host or cells: baculovirus expression system
Kind of test: MNK1 biochemical IC50 assay (Caliper Mobility Shift Assay).

Test [12] deals with EEF2K (Homo sapiens, UniProt O00418). Description: Kinase selectivity screen EEF2K. To be noted: read-out: % inhibition of EEF2K.
Setting [13] is: read-out: P(IC50) MNK1 (converted).

The structures appear in SMILES notation. Read-outs that look alike come from different tables or passages of the source.

In general, inhibition refers to the share of the control response that was lost under treatment. Usually IC50 stands for the concentration needed to halve the response being measured.

Sequence of PTK2 (Q05397 whole entry, species assumed): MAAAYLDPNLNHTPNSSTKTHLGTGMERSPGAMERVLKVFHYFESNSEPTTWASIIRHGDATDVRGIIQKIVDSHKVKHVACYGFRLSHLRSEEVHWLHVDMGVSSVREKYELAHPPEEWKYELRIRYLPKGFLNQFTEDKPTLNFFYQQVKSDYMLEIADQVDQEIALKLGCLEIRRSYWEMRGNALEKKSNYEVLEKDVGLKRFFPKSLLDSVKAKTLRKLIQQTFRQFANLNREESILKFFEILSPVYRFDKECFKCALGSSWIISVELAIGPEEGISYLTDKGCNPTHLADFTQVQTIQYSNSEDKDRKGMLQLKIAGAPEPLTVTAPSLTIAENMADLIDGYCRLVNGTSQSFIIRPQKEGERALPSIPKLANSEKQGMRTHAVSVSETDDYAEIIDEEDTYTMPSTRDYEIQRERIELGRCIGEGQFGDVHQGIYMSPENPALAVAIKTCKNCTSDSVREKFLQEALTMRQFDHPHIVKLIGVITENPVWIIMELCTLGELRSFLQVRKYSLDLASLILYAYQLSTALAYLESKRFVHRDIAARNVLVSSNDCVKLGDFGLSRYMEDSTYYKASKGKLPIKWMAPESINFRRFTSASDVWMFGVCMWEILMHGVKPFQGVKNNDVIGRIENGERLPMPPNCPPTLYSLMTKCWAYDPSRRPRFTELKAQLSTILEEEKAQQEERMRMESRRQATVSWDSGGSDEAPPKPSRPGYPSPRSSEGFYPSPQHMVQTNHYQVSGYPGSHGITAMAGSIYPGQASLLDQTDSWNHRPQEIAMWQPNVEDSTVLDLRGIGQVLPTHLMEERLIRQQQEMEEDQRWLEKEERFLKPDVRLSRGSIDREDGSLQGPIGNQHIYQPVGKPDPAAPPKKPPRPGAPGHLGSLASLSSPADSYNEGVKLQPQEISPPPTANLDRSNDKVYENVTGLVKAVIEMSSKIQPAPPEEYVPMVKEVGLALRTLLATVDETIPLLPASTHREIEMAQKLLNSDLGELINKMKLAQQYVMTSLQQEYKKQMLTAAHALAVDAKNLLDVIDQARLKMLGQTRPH
Sequence of RET (P07949 29-1114, species assumed): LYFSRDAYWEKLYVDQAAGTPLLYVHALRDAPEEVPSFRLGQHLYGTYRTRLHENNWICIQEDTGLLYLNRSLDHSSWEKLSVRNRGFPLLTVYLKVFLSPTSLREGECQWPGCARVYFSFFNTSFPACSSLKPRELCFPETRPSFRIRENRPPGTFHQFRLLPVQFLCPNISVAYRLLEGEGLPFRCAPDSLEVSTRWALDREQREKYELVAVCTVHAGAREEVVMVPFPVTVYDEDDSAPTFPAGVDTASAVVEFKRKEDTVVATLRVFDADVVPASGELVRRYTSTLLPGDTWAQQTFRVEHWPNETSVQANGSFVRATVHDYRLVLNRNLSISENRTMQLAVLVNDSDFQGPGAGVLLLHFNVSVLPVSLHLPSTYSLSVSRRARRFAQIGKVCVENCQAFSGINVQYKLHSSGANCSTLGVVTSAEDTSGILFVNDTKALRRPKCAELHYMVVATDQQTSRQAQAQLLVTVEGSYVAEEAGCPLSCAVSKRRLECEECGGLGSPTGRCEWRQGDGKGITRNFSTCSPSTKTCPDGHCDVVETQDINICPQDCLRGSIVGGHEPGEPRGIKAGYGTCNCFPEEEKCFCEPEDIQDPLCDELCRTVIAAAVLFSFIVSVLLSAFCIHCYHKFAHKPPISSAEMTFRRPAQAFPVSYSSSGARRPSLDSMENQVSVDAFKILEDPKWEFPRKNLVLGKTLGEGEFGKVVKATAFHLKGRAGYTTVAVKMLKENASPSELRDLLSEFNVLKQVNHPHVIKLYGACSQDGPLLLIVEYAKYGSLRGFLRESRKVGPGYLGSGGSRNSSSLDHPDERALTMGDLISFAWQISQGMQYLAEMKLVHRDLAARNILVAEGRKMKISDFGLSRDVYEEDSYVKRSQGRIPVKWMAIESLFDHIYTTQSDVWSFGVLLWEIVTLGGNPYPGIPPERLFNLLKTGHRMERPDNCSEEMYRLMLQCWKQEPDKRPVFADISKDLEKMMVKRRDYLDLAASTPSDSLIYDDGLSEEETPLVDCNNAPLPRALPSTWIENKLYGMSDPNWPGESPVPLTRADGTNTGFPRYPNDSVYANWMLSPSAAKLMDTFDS
Sequence of MAP2K1 (Q02750 whole entry, species assumed): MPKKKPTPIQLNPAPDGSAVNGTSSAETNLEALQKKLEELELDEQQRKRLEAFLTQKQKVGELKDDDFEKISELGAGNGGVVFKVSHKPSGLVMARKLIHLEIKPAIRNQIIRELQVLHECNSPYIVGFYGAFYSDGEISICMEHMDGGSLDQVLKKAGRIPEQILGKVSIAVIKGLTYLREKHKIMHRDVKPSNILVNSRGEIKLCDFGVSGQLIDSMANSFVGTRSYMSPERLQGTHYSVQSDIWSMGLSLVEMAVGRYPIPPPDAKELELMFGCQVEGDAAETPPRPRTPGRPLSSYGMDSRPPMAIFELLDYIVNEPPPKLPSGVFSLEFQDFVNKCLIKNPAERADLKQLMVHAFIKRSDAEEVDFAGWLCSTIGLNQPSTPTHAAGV
Sequence of ROCK1 (Q13464 whole entry, species assumed): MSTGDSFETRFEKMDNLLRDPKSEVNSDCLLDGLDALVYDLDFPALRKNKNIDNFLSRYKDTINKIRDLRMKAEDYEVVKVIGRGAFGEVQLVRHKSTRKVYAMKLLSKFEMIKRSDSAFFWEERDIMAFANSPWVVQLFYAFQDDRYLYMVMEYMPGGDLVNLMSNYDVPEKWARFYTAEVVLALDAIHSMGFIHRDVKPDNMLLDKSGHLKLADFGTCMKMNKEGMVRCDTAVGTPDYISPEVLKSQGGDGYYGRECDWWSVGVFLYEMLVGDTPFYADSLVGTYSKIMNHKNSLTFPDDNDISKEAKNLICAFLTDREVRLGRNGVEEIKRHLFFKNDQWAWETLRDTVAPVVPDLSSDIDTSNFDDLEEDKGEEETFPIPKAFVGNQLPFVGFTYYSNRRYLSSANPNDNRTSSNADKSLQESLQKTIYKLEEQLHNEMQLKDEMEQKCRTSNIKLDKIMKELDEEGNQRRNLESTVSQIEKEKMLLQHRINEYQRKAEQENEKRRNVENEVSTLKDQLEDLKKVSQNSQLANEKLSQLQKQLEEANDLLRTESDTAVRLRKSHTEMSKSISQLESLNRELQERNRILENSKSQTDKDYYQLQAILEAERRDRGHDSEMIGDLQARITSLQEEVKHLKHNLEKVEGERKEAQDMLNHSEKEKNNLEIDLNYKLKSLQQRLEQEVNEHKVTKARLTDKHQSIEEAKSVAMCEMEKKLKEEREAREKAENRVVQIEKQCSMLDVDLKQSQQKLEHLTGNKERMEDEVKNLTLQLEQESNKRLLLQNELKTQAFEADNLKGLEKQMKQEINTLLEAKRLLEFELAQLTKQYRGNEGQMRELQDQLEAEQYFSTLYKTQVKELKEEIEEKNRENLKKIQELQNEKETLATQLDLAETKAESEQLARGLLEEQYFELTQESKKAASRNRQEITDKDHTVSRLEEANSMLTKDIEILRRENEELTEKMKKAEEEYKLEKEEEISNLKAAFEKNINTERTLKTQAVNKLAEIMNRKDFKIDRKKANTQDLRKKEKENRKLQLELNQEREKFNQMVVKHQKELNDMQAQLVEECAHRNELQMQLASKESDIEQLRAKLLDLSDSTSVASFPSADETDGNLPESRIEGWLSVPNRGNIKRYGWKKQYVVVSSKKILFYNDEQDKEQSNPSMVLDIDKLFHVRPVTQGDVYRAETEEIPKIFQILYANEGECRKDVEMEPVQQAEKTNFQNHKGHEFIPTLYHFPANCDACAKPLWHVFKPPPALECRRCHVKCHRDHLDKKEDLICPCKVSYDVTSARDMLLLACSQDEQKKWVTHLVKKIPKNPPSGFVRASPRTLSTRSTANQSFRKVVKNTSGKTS
Sequence of EEF2K (O00418 whole entry): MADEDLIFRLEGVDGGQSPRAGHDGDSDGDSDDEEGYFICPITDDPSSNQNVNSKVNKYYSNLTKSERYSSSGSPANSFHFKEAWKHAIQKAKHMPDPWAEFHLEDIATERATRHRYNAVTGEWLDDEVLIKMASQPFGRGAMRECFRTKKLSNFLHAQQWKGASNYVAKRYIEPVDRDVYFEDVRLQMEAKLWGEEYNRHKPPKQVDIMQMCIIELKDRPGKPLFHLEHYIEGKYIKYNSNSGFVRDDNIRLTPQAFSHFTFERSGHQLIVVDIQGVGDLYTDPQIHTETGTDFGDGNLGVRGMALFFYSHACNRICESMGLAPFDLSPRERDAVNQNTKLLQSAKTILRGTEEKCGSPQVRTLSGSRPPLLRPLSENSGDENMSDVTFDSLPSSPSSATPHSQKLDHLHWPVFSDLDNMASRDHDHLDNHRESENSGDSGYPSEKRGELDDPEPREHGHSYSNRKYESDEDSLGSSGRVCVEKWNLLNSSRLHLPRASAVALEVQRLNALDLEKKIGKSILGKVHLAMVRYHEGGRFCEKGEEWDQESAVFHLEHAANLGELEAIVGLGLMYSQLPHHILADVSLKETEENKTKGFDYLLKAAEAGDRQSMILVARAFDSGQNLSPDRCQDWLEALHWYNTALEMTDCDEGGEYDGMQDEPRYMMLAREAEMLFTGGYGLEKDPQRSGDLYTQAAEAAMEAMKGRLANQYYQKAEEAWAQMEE
T2 sequence (Q9BUB5 1-424 isoform Q9BUB5-2 T344D): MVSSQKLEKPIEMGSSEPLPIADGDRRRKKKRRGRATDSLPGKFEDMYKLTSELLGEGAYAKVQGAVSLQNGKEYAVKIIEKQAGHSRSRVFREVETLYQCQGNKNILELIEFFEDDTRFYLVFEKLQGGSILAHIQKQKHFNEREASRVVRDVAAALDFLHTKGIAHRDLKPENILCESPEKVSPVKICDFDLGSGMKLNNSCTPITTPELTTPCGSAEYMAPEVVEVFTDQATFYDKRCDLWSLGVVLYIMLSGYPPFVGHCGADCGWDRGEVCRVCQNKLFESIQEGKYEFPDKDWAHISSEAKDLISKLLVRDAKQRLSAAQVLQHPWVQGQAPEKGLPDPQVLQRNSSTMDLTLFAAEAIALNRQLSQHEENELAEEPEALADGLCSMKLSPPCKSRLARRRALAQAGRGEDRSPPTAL

Regarding `O=C(NCC1CCNCC1)c1nc2c(N3CCc4cc(F)ccc43)ncnc2s1` [Example 58, 7-(5-fluoroindolin-1-yl)-N-(4-piperidylmethyl)thiazolo[5,4-d]pyrimidine-2-carboxamide], the inhibition at 1 µM in test [1] was 0%; in test [2], 14%; in test [3], 7%; in test [4], 1%; in [5] it was 0%; in test [6] it was 0%. Besides, the inhibition at 1 µM in test [7], in [8], in test [9], in test [10] and in test [12] was 0% in each case. In addition, in [11] (setting [13]), the IC50 was 5.01 nM.
Consider `CN(C)CCCNC(=O)c1nc2c(N3CCc4cc(F)ccc43)ncnc2s1` [Example 64, N-[3-(dimethylamino)propyl]-7-(5-fluoroindolin-1-yl)thiazolo[5,4-d]pyrimidine-2-carboxamide], for which the inhibition at 1 µM in test [1] amounted to 0%; in test [2], 4%; in test [3] it was 5%; in test [4], 0%; in test [5] it was 0%; in [6], 4%. Further, the inhibition at 1 µM was found to be 0% in [7]; 0% in [8]; 4% in test [9]; 8% in [10]; 0% in test [12]. In addition, the IC50 in test [11] (setting [13]) was 2.51 nM.
On to `CC(C)Oc1cc(F)ccc1Nc1ncnc2sc(C(=O)NCC3CCNCC3)nc12` [Example 10, 7-(4-fluoro-2-isopropoxy-anilino)-N-(4-piperidylmethyl)thiazolo[5,4-d]pyrimidine-2-carboxamide], for which the inhibition at 1 µM in test [1] worked out at 4%; in [2], 4%; in test [3], 0%; in test [4] it was 2%; in [5], 16%; in [6], 15%. In addition, the inhibition at 1 µM in test [7] stood at 0%; in test [8] it was 1%; in test [9], 0%; in [10], 4%; in [12], 4%. The IC50 in [11] was 50.1 nM.

The values are drawn from patent US10669284B2, “Fused thiazolopyrimidine derivatives as MNKS inhibitors” (LIFEARC, priority 2015, dated 2020).
